Patent US8278461B2, “Stable amorphous form of carvedilol dihydrogen phosphate with stabilizer” (Lupin Limited, priority 2007, dated 2012)
Where two headings read alike, the source gives them in different places.

Tests used:
[1] = Glass transition temperature of the amorphous form; type: physicochemical
Protocol: We have filed an Indian patent application 292/KOL/2007 dated 27 Feb. 2007 in Indian Patent Office on amorphous form of carvedilol dihydrogen phosphate and the process for its preparation. The amorphous form obtained by the process described in this application has glass transition temperature below 60° C. The amorphous solids in general having low glass transition temperature not only create complications during formulation but also has stability related problems on storage. The glass transition temperature is the temperature, below which the physical properties of amorphous materials vary in a manner similar to those of a crystalline phase (glassy state), and above which amorphous materials behave like liquids (rubbery state). A materials glass transition temperature is the temperature below which molecules have little relative mobility. Thus, there exist a need to develop stable amorphous form of carvedilol dihydrogen phosphate which have improved characteristics. […] The amorphous carvedilol obtained without stabiliser having glass transition temperature 55-56° C. while the stable amorphous form of the present invention has glass transition temperature in the range between 76 to 185° C. The phosphorous content of the stable amorphous form of the present invention is between 18-20% on anhydrous basis.

[2] = amorphous form obtained by the process of Indian application 292/KOL/2007; cited from earlier work

glass transition temperature [1]: 55-56 °C
SMILES: COc1ccccc1OCCNCC(O)COc1cccc2[nH]c3ccccc3c12.O=P(O)(O)O (centres unmarked) [carvedilol dihydrogen phosphate]
glass transition temperature [2]: below 60 °C
